Data published in US10344025B2, “GLS1 inhibitors for treating disease” (Board of Regents, The University of Texas System, priority 2014, dated 2019).

Tests used:
[1] = molecular target: purified recombinant human GAC (GLS1) (Homo sapiens (Human), UniProt O94925); experiment: GLS1 Enzymatic Activity Assay (dual-coupled enzymatic assay, resorufin/Amplex UltraRed readout); format: biochemical;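 note: glutamate from GAC coupled via glutamate oxidase and peroxidase to resorufin, read as fluorescence (ex 530, em 590 nm) kinetically or at 20 min, four-parameter logistic IC50 fit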
A549 cells = experiment: Proliferation Assay (A549 viability, Cell Titer Fluor, 72 hours); format: cell-based; conditions: Homo sapiens, A549, 72 h
How it was run: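 Cell Titer Fluor fluorescence after 72 h compound treatment (0.5% DMSO, 37 °C, 5% CO2) of A549 cells plated 24 h earlier at 1000/well. Four-parameter logistic fitting gave IC50.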

Sequence of purified recombinant human GAC (GLS1) (O94925 other isoform, or with tags, fused parts or gaps): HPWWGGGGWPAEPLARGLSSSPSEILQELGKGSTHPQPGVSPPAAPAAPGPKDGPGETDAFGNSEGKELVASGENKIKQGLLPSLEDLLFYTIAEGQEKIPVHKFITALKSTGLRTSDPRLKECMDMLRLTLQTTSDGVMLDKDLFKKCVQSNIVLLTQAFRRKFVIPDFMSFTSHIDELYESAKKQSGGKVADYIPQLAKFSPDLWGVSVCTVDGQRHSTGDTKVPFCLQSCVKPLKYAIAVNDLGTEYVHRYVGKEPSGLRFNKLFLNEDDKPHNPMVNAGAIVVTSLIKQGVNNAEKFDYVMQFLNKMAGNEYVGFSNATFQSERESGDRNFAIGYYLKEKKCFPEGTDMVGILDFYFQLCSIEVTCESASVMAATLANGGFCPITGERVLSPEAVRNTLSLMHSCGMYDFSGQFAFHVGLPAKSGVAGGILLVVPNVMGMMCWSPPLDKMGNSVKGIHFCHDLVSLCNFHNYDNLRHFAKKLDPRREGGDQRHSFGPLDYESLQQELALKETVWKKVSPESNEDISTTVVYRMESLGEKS

IC50 [1] | EC50 (A549 cells) | Structure (SMILES)
< 100 nM | 100 to 500 nM | N#CCNC(=O)c1cn(CC(F)CCc2nnc(NC(=O)Cc3cccc(OC(F)(F)F)c3)s2)nn1 (centres unmarked) [Example 505, N-(cyanomethyl)-1-[2-fluoro-4-(5-{2-[3-(trifluoromethoxy)phenyl]acetamido}-1,3,4-thiadiazol-2-yl)butyl]-1H-1,2,3-triazole-4-carboxamide]
100 to 500 nM | 100 to 500 nM | O=C(NCC(F)(F)F)c1cn(CC(F)CCc2nnc(C(=O)NCc3cncc(C(F)(F)F)c3)s2)nn1 (centres unmarked) [Example 506, 5-(3-fluoro-4-{4-[(2,2,2-trifluoroethyl)carbamoyl]-1H-1,2,3-triazol-1-yl}butyl)-N-{[5-(trifluoromethyl)pyridin-3-yl]methyl}-1,3,4-thiadiazole-2-carboxamide]
100 to 500 nM | 100 to 500 nM | CNC(=O)c1nnc(CCC(F)Cn2cc(C(=O)NCc3cncc(C(F)(F)F)c3)nn2)s1 (centres unmarked) [Example 507, 5-{3-fluoro-4-[4-({[5-(trifluoromethyl)pyridin-3-yl]methyl}carbamoyl)-1H-1,2,3-triazol-1-yl]butyl}-N-methyl-1,3,4-thiadiazole-2-carboxamide]
100 to 500 nM | 100 to 500 nM | O=C(NCC(F)(F)F)c1cn(CC(F)CCc2nnc(C(=O)NCc3cc(C(F)(F)F)ccn3)s2)nn1 (centres unmarked) [Example 509, 5-(3-fluoro-4-{4-[(2,2,2-trifluoroethyl)carbamoyl]-1H-1,2,3-triazol-1-yl}butyl)-N-{[4-(trifluoromethyl)pyridin-2-yl]methyl}-1,3,4-thiadiazole-2-carboxamide]
100 to 500 nM | 500 to 5000 nM | O=C(NCCC(F)(F)F)c1cn(CC(F)CCc2nnc(C(=O)NCc3cc(C(F)(F)F)ccn3)s2)nn1 (centres unmarked) [Example 510, 5-(3-fluoro-4-{4-[(3,3,3-trifluoropropyl)carbamoyl]-1H-1,2,3-triazol-1-yl}butyl)-N-{[4-(trifluoromethyl)pyridin-2-yl]methyl}-1,3,4-thiadiazole-2-carboxamide]
100 to 500 nM | 500 to 5000 nM | O=C(NCc1cc(C(F)(F)F)ccn1)c1cn(CC(F)CCc2nnc(C(=O)NCCC(F)(F)F)s2)nn1 (centres unmarked) [Example 511, 5-{3-fluoro-4-[4-({[4-(trifluoromethyl)pyridin-2-yl]methyl}carbamoyl)-1H-1,2,3-triazol-1-yl]butyl}-N-(3,3,3-trifluoropropyl)-1,3,4-thiadiazole-2-carboxamide]
100 to 500 nM | 100 to 500 nM | O=C(NCc1cncc(C(F)(F)F)c1)c1cn(CC(F)CCc2nnc(C(=O)NCCC(F)(F)F)s2)nn1 (centres unmarked) [Example 512, 5-{3-fluoro-4-[4-({[5-(trifluoromethyl)pyridin-3-yl]methyl}carbamoyl)-1H-1,2,3-triazol-1-yl]butyl}-N-(3,3,3-trifluoropropyl)-1,3,4-thiadiazole-2-carboxamide]
< 100 nM | < 100 nM | O=C(Cc1ccccn1)Nc1nnc(CCC(F)Cn2cc(C(=O)NCc3cccc(OC(F)(F)F)c3)nn2)s1 (centres unmarked) [Example 513, 1-(2-fluoro-4-{5-[2-(pyridin-2-yl)acetamido]-1,3,4-thiadiazol-2-yl}butyl)-N-{[3-(trifluoromethoxy)phenyl]methyl}-1H-1,2,3-triazole-4-carboxamide]
< 100 nM | < 100 nM | O=C(Cc1ccccn1)Nc1nnc(CCC(F)Cn2cc(C(=O)NCc3cc(OC(F)(F)F)ccc3F)nn2)s1 (centres unmarked) [Example 514, 1-(2-fluoro-4-{5-[2-(pyridin-2-yl)acetamido]-1,3,4-thiadiazol-2-yl}butyl)-N-{[2-fluoro-5-(trifluoromethoxy)phenyl]methyl}-1H-1,2,3-triazole-4-carboxamide]
< 100 nM | 100 to 500 nM | N#CCNC(=O)c1nnc(CCC(F)Cn2cc(C(=O)NCc3cccc(OC(F)(F)F)c3)nn2)s1 (centres unmarked) [Example 515, N-(cyanomethyl)-5-{3-fluoro-4-[4-({[3-(trifluoromethoxy)phenyl]methyl}carbamoyl)-1H-1,2,3-triazol-1-yl]butyl}-1,3,4-thiadiazole-2-carboxamide]
